We go through eight compounds from ChEMBL document CHEMBL5465560, “Selectivity Literature for EUbOPEN Chemogenomic Library” (2024).

For experiment [1], the target named is Mitotic checkpoint serine/threonine-protein kinase BUB1 beta (Homo sapiens) (UniProt O60566). In words: Selectivity interaction (ProQinase) EUB0000171b BUB1B.
In experiment [2] the target is Insulin receptor (Homo sapiens, UniProt P06213). In words: Selectivity interaction (ProQinase) EUB0000171b INSR. Particulars: at 5 µM.
Experiment [3] has as its target Misshapen-like kinase 1 (Homo sapiens, UniProt Q8N4C8). In words: Selectivity interaction (KinomeScan (DiscoverX)) EUB0000092b MINK1. The settings on record: at 10 µM.
Experiment [4] concerns the target LIM domain kinase 2 (Homo sapiens) (UniProt P53671). The experiment in a line: Selectivity interaction (KinomeScan (DiscoverX)) EUB0000045b LIMK2.
The target of experiment [5] is T1, Histone-arginine methyltransferase CARM1 (Homo sapiens) (UniProt Q86X55).
T1 sequence (whole entry): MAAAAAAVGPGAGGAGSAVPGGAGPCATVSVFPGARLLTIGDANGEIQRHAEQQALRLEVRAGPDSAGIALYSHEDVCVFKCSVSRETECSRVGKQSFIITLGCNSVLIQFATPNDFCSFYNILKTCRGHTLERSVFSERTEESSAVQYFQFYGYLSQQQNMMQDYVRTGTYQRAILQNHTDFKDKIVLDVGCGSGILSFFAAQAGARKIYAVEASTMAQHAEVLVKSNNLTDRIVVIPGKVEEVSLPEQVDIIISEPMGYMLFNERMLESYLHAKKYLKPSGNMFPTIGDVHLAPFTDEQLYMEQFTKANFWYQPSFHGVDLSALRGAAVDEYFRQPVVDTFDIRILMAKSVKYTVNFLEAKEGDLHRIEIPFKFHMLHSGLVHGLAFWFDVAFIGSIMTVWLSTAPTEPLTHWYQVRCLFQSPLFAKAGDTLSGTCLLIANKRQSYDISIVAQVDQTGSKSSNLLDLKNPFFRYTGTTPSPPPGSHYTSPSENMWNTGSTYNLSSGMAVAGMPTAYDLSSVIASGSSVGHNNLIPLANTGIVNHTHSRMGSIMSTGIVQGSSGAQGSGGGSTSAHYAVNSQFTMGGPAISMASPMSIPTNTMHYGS
Particulars: KMS-20, at 3 µM.

Experiment [6] concerns the target T2, Mitogen-activated protein kinase kinase kinase 2 (Homo sapiens) (UniProt Q9Y2U5).
T2 sequence (whole entry): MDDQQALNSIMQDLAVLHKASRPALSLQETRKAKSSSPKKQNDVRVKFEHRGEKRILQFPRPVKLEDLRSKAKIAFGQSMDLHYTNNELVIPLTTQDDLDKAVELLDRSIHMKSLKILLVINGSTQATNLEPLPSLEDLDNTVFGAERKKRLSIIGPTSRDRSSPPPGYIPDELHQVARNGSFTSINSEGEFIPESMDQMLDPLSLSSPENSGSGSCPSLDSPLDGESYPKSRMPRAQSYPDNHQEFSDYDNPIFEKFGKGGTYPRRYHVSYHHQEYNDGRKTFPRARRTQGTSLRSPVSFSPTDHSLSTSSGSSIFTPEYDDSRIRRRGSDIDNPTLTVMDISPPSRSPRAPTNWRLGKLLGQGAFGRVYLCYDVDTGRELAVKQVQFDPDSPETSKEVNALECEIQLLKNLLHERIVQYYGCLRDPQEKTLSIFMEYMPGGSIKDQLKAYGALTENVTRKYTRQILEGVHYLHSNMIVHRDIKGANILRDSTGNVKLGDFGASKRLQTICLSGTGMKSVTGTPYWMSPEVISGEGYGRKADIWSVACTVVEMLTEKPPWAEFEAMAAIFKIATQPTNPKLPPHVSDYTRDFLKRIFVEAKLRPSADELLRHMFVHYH
In words: Selectivity interaction (ActivX KiNativ screen (kinase selectivity in THP-1 cell lysates)) EUB0000639a MAP3K2. It is filed as subcellular. The settings on record: lysate, at 0.2 µM.

Experiment [7] can be described thus: Selectivity interaction (Kinase panel (Enzyme activity assay)) EUB0000612a IGF1.
The target of experiment [8] is Myosin light chain kinase 2, skeletal/cardiac muscle (Homo sapiens) (UniProt Q9H1R3). In words: Selectivity interaction (Kinase panel (literature)) EUB0001199aCl MYLK2. The settings on record: at 1 µM.
Experiment [9] has as its target T3, Ephrin type-B receptor 3 (Homo sapiens) (UniProt P54753).
T3 sequence (whole entry): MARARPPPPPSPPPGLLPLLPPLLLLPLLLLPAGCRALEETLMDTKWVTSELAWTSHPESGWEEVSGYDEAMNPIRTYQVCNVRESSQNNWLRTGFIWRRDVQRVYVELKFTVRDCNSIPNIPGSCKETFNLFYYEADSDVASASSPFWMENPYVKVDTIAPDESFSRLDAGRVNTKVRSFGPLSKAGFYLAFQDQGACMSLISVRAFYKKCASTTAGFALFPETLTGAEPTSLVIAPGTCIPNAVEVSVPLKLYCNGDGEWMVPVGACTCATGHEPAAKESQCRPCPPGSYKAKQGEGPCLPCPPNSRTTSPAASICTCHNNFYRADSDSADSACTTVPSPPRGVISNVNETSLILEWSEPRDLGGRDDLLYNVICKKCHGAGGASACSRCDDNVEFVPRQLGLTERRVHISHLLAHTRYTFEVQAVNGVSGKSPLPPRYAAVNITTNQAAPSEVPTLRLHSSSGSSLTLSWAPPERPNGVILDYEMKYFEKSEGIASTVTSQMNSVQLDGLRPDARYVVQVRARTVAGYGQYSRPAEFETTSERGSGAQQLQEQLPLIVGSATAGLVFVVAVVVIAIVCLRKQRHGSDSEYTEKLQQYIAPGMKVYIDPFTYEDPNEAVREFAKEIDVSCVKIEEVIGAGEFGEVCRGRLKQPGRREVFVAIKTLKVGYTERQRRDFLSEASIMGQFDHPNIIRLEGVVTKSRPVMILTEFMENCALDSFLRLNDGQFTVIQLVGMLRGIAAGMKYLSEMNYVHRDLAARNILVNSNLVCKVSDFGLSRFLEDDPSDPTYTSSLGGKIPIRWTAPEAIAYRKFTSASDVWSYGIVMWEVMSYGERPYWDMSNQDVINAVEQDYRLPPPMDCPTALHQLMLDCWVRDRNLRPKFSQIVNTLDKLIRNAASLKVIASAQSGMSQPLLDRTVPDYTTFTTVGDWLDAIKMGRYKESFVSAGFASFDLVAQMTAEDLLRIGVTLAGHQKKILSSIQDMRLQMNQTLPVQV
In words: Selectivity interaction (KinomeScan (DiscoverX)) EUB0000618a EPHB3. Particulars: at 10 µM.

Broadly, the IC50 is the point on the concentration scale where inhibition reaches its midpoint. Read a high IC50 as weaker potency.

Chain of Mitotic checkpoint serine/threonine-protein kinase BUB1 beta (Homo sapiens) (O60566 whole entry): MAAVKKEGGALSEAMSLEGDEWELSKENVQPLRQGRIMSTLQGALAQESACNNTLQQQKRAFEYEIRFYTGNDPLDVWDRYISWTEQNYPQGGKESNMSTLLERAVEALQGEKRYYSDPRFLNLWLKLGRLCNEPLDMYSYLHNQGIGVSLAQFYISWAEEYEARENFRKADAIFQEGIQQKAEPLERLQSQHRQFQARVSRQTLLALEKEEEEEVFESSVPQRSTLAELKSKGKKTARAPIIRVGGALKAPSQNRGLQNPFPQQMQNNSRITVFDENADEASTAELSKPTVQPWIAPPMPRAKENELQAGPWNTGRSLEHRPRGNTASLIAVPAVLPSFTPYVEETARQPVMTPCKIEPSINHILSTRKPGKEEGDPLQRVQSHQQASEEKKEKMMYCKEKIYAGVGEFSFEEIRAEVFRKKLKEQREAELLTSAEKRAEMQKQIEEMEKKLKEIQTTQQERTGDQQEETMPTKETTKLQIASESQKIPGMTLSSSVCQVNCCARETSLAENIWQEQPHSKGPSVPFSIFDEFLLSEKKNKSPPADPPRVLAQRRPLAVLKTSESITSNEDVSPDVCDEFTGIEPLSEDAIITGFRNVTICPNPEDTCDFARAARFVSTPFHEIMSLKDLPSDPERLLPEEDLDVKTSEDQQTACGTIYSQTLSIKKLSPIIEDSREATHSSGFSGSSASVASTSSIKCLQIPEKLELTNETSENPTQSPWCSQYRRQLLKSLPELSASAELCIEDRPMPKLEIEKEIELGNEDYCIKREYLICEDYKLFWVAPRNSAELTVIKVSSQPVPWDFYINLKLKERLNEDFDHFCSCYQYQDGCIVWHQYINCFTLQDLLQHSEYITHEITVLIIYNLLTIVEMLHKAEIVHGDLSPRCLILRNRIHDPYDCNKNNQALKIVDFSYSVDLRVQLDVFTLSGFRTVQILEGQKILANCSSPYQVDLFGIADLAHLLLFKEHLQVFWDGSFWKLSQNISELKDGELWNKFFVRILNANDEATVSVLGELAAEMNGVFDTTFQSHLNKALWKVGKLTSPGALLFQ
Chain of LIM domain kinase 2 (Homo sapiens) (P53671 whole entry, looked up, the tested form may be a part): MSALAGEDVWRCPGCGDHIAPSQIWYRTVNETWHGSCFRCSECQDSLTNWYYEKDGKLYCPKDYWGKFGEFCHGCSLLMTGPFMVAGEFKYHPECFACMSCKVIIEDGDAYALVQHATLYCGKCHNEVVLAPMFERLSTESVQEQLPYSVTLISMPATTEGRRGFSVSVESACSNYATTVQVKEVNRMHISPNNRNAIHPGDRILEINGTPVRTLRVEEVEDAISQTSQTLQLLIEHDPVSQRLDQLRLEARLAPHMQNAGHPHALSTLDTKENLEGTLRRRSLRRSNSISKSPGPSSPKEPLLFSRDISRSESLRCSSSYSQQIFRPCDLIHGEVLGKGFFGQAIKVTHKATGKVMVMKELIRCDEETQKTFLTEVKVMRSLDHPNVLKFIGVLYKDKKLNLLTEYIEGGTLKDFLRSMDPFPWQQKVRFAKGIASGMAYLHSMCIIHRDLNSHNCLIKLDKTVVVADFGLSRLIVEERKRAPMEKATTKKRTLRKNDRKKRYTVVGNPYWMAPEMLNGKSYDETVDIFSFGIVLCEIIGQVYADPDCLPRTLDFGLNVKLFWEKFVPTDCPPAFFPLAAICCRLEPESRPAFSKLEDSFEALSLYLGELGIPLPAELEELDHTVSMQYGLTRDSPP
Chain of Insulin receptor (P06213 28-758 limits assumed): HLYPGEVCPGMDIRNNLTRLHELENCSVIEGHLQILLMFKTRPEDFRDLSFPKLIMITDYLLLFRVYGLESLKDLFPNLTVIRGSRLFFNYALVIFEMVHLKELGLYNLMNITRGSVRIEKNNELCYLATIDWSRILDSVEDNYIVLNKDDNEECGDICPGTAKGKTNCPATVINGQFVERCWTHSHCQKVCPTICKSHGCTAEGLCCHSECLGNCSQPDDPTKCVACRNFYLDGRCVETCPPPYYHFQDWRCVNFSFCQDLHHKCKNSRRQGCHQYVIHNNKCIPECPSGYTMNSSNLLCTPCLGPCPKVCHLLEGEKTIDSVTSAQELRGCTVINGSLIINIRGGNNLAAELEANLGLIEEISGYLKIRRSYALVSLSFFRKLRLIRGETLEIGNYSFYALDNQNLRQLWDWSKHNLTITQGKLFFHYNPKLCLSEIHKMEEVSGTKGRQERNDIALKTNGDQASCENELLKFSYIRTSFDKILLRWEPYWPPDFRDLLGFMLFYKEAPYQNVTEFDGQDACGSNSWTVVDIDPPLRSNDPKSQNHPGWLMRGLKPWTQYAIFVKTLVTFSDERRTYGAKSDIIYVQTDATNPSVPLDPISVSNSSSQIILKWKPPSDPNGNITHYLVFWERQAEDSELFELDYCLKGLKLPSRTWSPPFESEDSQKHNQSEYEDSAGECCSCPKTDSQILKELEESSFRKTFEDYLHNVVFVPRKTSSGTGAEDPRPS
Chain of Insulin receptor (P06213 763-1382 limits assumed): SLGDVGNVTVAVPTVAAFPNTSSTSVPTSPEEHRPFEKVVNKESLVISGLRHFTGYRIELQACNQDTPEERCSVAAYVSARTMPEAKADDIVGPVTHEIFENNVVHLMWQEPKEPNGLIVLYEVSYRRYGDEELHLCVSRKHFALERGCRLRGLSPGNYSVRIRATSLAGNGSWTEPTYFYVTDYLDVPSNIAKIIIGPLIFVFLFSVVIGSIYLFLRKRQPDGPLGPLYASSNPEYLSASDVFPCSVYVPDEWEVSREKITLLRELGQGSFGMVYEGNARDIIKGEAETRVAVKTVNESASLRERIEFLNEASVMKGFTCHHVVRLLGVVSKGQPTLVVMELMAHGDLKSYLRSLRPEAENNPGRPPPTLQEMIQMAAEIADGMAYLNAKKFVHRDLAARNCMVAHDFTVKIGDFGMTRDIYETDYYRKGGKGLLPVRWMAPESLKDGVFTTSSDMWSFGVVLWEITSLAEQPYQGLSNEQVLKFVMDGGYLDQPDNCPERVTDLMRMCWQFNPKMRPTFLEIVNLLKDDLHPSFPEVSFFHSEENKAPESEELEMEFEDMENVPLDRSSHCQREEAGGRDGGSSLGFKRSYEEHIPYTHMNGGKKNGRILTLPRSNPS
Chain of Misshapen-like kinase 1 (Q8N4C8 whole entry, looked up, the tested form may be a part): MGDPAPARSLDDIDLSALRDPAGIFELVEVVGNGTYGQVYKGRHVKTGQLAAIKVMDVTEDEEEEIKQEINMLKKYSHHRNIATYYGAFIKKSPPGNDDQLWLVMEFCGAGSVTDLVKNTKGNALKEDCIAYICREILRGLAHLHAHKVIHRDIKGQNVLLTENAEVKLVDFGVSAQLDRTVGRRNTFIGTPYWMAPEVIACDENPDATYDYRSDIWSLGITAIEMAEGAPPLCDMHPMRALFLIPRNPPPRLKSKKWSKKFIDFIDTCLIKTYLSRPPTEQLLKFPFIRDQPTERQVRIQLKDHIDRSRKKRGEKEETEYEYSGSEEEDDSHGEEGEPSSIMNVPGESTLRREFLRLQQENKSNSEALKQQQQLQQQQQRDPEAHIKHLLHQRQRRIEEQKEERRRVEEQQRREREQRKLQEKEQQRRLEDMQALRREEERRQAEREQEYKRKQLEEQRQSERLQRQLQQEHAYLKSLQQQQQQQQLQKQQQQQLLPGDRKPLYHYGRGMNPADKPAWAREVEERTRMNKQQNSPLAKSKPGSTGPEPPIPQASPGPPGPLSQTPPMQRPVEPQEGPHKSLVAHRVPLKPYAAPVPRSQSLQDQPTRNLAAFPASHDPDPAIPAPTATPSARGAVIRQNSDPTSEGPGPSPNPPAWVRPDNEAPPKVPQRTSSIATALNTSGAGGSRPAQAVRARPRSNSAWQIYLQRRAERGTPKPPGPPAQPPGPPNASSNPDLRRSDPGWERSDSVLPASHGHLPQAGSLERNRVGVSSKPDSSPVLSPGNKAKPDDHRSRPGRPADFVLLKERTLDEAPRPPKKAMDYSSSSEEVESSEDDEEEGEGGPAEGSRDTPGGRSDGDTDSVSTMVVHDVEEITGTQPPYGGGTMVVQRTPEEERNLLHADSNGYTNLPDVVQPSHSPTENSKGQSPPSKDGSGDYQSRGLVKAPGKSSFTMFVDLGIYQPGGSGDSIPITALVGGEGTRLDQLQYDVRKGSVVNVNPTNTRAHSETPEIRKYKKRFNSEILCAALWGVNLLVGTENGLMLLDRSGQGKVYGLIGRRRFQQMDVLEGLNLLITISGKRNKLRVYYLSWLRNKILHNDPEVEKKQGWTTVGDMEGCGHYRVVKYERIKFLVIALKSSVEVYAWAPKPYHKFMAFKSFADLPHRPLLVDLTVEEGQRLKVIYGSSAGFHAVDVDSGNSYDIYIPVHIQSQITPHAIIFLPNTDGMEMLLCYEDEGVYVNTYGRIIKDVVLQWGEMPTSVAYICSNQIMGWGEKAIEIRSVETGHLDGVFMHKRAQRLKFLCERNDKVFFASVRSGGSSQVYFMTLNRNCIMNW
Chain of Myosin light chain kinase 2, skeletal/cardiac muscle (Homo sapiens) (Q9H1R3 whole entry): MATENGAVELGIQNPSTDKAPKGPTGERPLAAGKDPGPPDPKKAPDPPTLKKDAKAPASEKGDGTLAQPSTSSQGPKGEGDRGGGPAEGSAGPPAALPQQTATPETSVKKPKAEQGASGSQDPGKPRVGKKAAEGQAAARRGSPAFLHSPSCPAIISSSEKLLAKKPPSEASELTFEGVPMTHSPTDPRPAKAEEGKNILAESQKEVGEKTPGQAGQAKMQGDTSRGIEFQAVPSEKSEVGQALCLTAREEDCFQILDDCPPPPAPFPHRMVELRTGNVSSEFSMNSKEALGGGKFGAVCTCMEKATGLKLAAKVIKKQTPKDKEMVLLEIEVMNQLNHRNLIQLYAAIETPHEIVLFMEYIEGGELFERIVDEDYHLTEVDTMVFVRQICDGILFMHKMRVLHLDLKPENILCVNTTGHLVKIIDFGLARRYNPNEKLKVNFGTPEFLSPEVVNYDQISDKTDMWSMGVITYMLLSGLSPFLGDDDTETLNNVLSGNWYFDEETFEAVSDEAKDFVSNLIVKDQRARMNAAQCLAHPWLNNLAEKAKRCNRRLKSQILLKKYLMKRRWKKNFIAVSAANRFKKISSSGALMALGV

For `C=CC(=O)Nc1cccc(C(=O)Nc2ccc(Nc3cc(-c4[nH]c(SC)nc4C)ccn3)cc2)c1`, the results for the % of control in experiment [1] (at 1 µM), in experiment [1] (at 5 µM) and in experiment [2] were 95%, 80% and 72%, respectively. Regarding `CCC(=O)N1CCN(c2ccc(-n3c(=O)ccc4cnc5ccc(-c6cnc7ccccc7c6)cc5c43)cc2C(F)(F)F)CC1`, the % of control in [3] came out at 19%. Take `C=CC(=O)Nc1cc(-n2c(=O)ccc3cnc4ccc(-c5ccc(NS(C)(=O)=O)cc5)cc4c32)ccc1C`: the % of control in [4] (at 1 µM) came to 92%; in [4] (at 10 µM), 100%.

In the case of `CNCCN1CCC(c2cc(CN(C)C(=O)c3cccc(Oc4ccccc4)c3)ccn2)CC1`, the % of growth rate in [5] was -22.5%. Regarding `CC[C@@H]1[C@H](F)C(=O)N[C@@H]1COc1nccc2cc(C(N)=O)c(OC)cc12` [ZIMLOVISERTIB], the % of inhibition in experiment [6] is -1.4%. As for `CCc1cccc(CC)c1NC(=O)c1nn(C)c2c1CCc1cnc(Nc3ccc(C(=O)NC4CCN(C)CC4)cc3OC(F)(F)F)nc1-2`, the half-maximal inhibitory concentration (IC50) in [7] was above 10 µM. For the compound `CN1Cc2nccc(-c3cn(C)nc3-c3ccc(F)cc3)c2C1=O`, the % of inhibition in experiment [8] was 5%. Compound `O[C@H]1CC[C@H](Nc2ncc3nc(Nc4c(F)cc(F)cc4F)n([C@H]4CCOC4)c3n2)CC1` yielded a % of control in experiment [9] of 84%.
